Measured values from patent publication US20220282271A1, “HERBICIDE RESISTANT PLANTS AND METHODS OF MAKING AND USING” (OFFICE OF INNOVATION ADVANCEMENT AND COMMERCIALIZATION, priority 2019, published 2022).

Tests used:
Type in all cases: in vivo
Conditions in all cases: 1.0 lb ai/a, applied approximately 3 weeks after emergence, relative to non-treated
[1] = system: Albizia julibrissin; experiment: Weed control screen: silktree
Description: (§1) Herbicides were applied at a spray volume of 280 L/ha with no adjuvant added to any herbicide mixture. Weed control was rated on a 0 to 100 percent phytoxicity scale with 0 being no plant injury/phytotoxicity and 100 being complete plant dessication. Twenty-one weeds were evaluated for response to herbicides (Table 3). The weeds selected were a mixture of weeds common in agronomic and horticultural crops. Herbicide was applied to all species approximately 3 weeks after emergence. Plant phytotoxicity rated as percent control relative to the non-treated.

[2] = system: Senna obtusifolia; experiment: Weed control screen: sicklepod
Description: as §1

[3] = system: Crotalaria spectabilis; experiment: Weed control screen: showy crotalaria
Description: as §1

[4] = system: Sesbania exaltata; experiment: Weed control screen: hemp sesbania
Description: as §1

[5] = system: Physalis angulata; experiment: Weed control screen: cutleaf groundcherry
Description: as §1

[6] = system: Murdannia nudiflora; experiment: Weed control screen: doveweed
Description: as §1

[7] = system: Ipomoea lacunosa; experiment: Weed control screen: pitted morningglory
Description: as §1

[8] = system: Sida spinosa; experiment: Weed control screen: prickly sida
Description: as §1

[9] = system: Cyperus iria; experiment: Weed control screen: rice flatsedge
Description: as §1

[10] = system: Ipomoea coccinea; experiment: Weed control screen: red morningglory
Description: as §1

[11] = system: Ipomoea quamoclit; experiment: Weed control screen: cypressvine morningglory
Description: as §1

[12] = system: Ipomoea hederacea; experiment: Weed control screen: entireleaf morningglory
Description: as §1

[13] = system: Jaquemontia tamnifolia; experiment: Weed control screen: smallflower morningglory
Description: as §1

[14] = system: Conyza candensis; experiment: Weed control screen: glyphosate-resistant horseweed
Description: as §1

[15] = system: Solanum carolinense; experiment: Weed control screen: Carolina horsenettle
Description: as §1

[16] = system: Kyllinga squamulata; experiment: Weed control screen: cock's comb kyllinga
Description: as §1

[17] = system: Sorghum halapense; experiment: Weed control screen: johnsongrass
Description: as §1

[18] = system: Eleusine indica; experiment: Weed control screen: goosegrass
Description: as §1

[19] = system: Abutilon theophrasti; experiment: Weed control screen: velvetleaf
Description: as §1

[20] = system: Amaranthus hybridus; experiment: Weed control screen: smooth pigweed
Description: as §1

[21] = system: Amaranthus palmeri; experiment: Weed control screen: glyphosate resistant palmer amaranth
Description: as §1

Row | Compound | Percent control (0 to 100) [1] [%] | Percent control (0 to 100) [2] [%] | Percent control (0 to 100) [3] [%] | Percent control (0 to 100) [4] [%] | Percent control (0 to 100) [5] [%] | Percent control (0 to 100) [6] [%] | Percent control (0 to 100) [7] [%] | Percent control (0 to 100) [8] [%] | Percent control (0 to 100) [10] [%] | Percent control (0 to 100) [12] [%] | Percent control (0 to 100) [13] [%] | Percent control (0 to 100) [14] [%] | Percent control (0 to 100) [15] [%] | Percent control (0 to 100) [16] [%] | Percent control (0 to 100) [17] [%] | Percent control (0 to 100) [18] [%] | Percent control (0 to 100) [19] [%] | Percent control (0 to 100) [20] [%] | Percent control (0 to 100) [21] [%] | further results
1 | CP(=O)(O)CCC(N)C(=O)O (stereo not shown) [Glufosinate, glufosinate] | 100 | 100 | 100 | 100 | 100 | 100 | 100 | 100 | 100 | 100 | 100 | 100 | 100 | 30 | 100 | 100 | 100 | 100 | 100 | Percent control (0 to 100) [9]: 60%; Percent control (0 to 100) [11]: 100%
2 | O=C(O)CNCP(=O)(O)O [Glyphosate, glyphosate] | 25 | 70 | 60 | 75 | 99 | 80 | 60 | 60 | 50 | 60 | 40 | 0 | 50 | 95 | 100 | 90 | 100 | 90 | 35 | –
